{"source": "paper PMC11288129", "about": "“Diversely evolved xibalbin variants from remipede venom inhibit potassium channels and activate PKA-II and Erk1/2 signaling” (BMC Biology, 2024)", "key": {"hCav3.1": {"system": "hCav3.1", "assay": "TEVC inhibition, Cav3.1", "type": "cell-based, human", "parameters": "unit not given here", "conditions": "1 µM", "text": "(§1) For the expression of Kv channels rat Kv1.1 (GenBank accession number: NM_173095 [88, 89]), rKv1.2 (NM_012970 [90, 91]), human Kv1.3 (NM_002232 [92, 93]), rKv1.4 (NM_012971 [94, 95]), rKv1.6 (NM_023954 [96, 97]), hKv2.1 (NM_004975 [98, 99]), hKv3.1 (NM_004976 [100, 101]), rKv4.2 (NM_031739 [102, 103]), hKv10.1 (NM_172362 [104, 105]), hERG1 [Kv11.1, (NM_000238 [106, 107])], and Shaker IR [from Drosophila melanogaster, (NM_167595 [108, 109])], Nav channels [rNav1.2 (NM_012647 [42, 110]), rNav1.4 (NM_013178 [111, 112]), hNav1.5 (NM_198056 [113, 114]), mNav1.6 (NM_001077499 [115, 116]), BgNav [from Blattella germanica, (DQ466887 [117, 118])] and the auxiliary subunits rβ1 (NM_001271045 [119, 120]), hβ1 (NM_001037 [121, 122]), and TipE [from D. melanogaster, (NM_079196 [109, 123])], and Cav channels hCav3.1 [124, 125], hCav3.2 [126, 127], and hCav3.3 [128, 129] in Xenopus oocytes, the linearized plasmids were transcribed using the T7 or SP6 mMESSAGEmMACHINE transcription kit (Ambion, Austin, TX, USA). Mature female animals were purchased from Nasco (Fort Atkinson, USA) and were housed in the Aquatic Facility (KU Leuven) in compliance with the regulations of the European Union (EU) concerning the welfare of laboratory animals as declared in Directive 2010/63/EU. The use of X. laevis oocytes was approved by the Animal Ethics Committee of the KU Leuven with the license number P186/2019. Stage V–VI oocytes were collected from anesthetized female X. laevis frog as previously described, with the frogs anesthetized by placement in 0.1% tricaine solution (amino benzoic acid ethyl ester; Merck, USA). Oocyte microinjection was performed using a microinjector (Drummond Scientifc®, USA), with a programmed cRNA injection volume of 4—50 nL, depending on the channel subtype. The oocytes were incubated in ND96 solution (96 mM NaCl, 2 mM KCl, 1.8 mM CaCl2, 2 mM MgCl2, and 5 mM HEPES, pH 7.4), supplemented with 50 mg/l gentamicin sulfate.\n(§2) Electrophysiological measurements were performed at room temperature (18–22 °C) using the two-electrode voltage clamp (TEVC) technique. Data were obtained using a GeneClamp 500 amplifier (Axon Instruments, USA), and Clampex9 software (Axon Instruments), responsible for data acquisition and storage. Glass micropipettes were produced using glass capillaries (borosilicate WPI 1B120-6) and drawn in a WPI (World Precision Instruments, USA) manual stretcher. The bath and perfusion solutions were either the previously described ND96 (Nav and Kv channels) or calcium-free ND96 supplemented with 10 mM BaCl2 (Cav channels).\n(§3) Whole-cell currents of oocytes were recorded 1 to 3 days after injection. Current and voltage electrodes were filled with 3 M KCl and their resistance was adjusted from 0.7 to 2.0 MΩ. Currents were sampled at 20 kHz (Nav channels) and 10 kHz (Kv and Cav channels) and filtered using a four-pole Bessel low-pass Bessel filter, at 1 kHz for sodium, and […] for potassium and calcium, except for the hERG ion channel, in which the currents were filtered at 1 kHz. Leak subtraction was performed using a -P/4 protocol. Kv1.x currents were evoked by 500 ms depolarizations to 0 mV followed by a 500-ms pulse to − 50 mV, from a holding potential of − 90 mV. Kv2.1, Kv3.1, and Kv4.2 currents were elicited by 500 ms pulses to + 20 mV from a holding potential of − 90 mV. Current traces of Kv10.1 were elicited by 2 s depolarization to 0 mV, from a holding potential of − 90 mV. Current traces of hERG1 channel were elicited by applying a + 40 mV prepulse for 2 s followed by a step of − 120 mV for 2 s. Sodium current traces were evoked by a 100 ms depolarization to 0 mV, from a holding potential of − 90 mV. The current–voltage (IV) relationships were determined by 100-ms step depolarizations between − 90 and + 40 mV, using 5 mV increments. […]"}, "rKv1.6": {"system": "rKv1.6", "assay": "TEVC inhibition, Kv1.6", "type": "cell-based, rat", "conditions": "1 µM", "text": "as §1, §2, §3"}, "hERG1 (Kv11.1)": {"system": "hERG1 (Kv11.1)", "assay": "TEVC inhibition, Kv11.1 (hERG1)", "type": "cell-based", "conditions": "human, Xenopus laevis oocytes expressing hERG1 (Kv11.1), pH 7.4, replicate 1", "text": "For the expression of Kv channels rat Kv1.1 (GenBank accession number: NM_173095 [88, 89]), rKv1.2 (NM_012970 [90, 91]), human Kv1.3 (NM_002232 [92, 93]), rKv1.4 (NM_012971 [94, 95]), rKv1.6 (NM_023954 [96, 97]), hKv2.1 (NM_004975 [98, 99]), hKv3.1 (NM_004976 [100, 101]), rKv4.2 (NM_031739 [102, 103]), hKv10.1 (NM_172362 [104, 105]), hERG1 [Kv11.1, (NM_000238 [106, 107])], and Shaker IR [from Drosophila melanogaster, (NM_167595 [108, 109])], Nav channels [rNav1.2 (NM_012647 [42, 110]), rNav1.4 (NM_013178 [111, 112]), hNav1.5 (NM_198056 [113, 114]), mNav1.6 (NM_001077499 [115, 116]), BgNav [from Blattella germanica, (DQ466887 [117, 118])] and the auxiliary subunits rβ1 (NM_001271045 [119, 120]), hβ1 (NM_001037 [121, 122]), and TipE [from D. melanogaster, (NM_079196 [109, 123])], and Cav channels hCav3.1 [124, 125], hCav3.2 [126, 127], and hCav3.3 [128, 129] in Xenopus oocytes, the linearized plasmids were transcribed using the T7 or SP6 mMESSAGEmMACHINE transcription kit (Ambion, Austin, TX, USA). […]\nWhole-cell currents of oocytes were recorded 1 to 3 days after injection. […] The current–voltage (IV) relationships were determined by 100-ms step depolarizations between − 90 and + 40 mV, using 5 mV increments. […]"}}, "note": "Positions of bridges follow the written chain, without caps; N, C: chain ends. No end group written: not given here."}
{"sequence": "KRSCIRRFGRCDHRPNDCCYNSSCRCNLWGSNCRCQRMGLFQKWGK (disulfide 4-19, 11-24, 18-35, 26-33) [xib13]", "values": [{"measurement": "Inhibition data, Cav3.1", "setting": "hCav3.1; replicate 1", "value": 0.0}, {"measurement": "Inhibition data, Cav3.1", "setting": "hCav3.1; replicate 2", "value": 0.0}, {"measurement": "Inhibition data, Cav3.1", "setting": "hCav3.1; replicate 3", "value": 0.0}, {"measurement": "Inhibition data, Cav3.1", "setting": "hCav3.1; replicate 4", "value": 0.0}, {"measurement": "Inhibition data, Kv1.6", "setting": "rKv1.6; replicate 1", "value": 81.2}, {"measurement": "Inhibition data, Kv1.6", "setting": "rKv1.6; replicate 2", "value": 87.8}, {"measurement": "Inhibition data, Kv1.6", "setting": "rKv1.6; replicate 3", "value": 79.9}, {"measurement": "inhibition at 1 µM", "setting": "hERG1 (Kv11.1)", "value": 0, "unit": "%"}]}
{"sequence": "RLFCIRHHKYCGHRPKRCCSGLFCRCNTFGTNCRCQSKGALGKLI (disulfide 4-19, 11-24, 18-35, 26-33) [xib1]", "values": [{"measurement": "Inhibition data, Cav3.1", "setting": "hCav3.1; replicate 1", "value": 0.0}, {"measurement": "Inhibition data, Cav3.1", "setting": "hCav3.1; replicate 2", "value": 0.0}, {"measurement": "Inhibition data, Cav3.1", "setting": "hCav3.1; replicate 3", "value": 0.0}, {"measurement": "Inhibition data, Cav3.1", "setting": "hCav3.1; replicate 4", "value": 0.0}, {"measurement": "Inhibition data, Kv1.6", "setting": "rKv1.6; replicate 1", "value": 80.8}, {"measurement": "Inhibition data, Kv1.6", "setting": "rKv1.6; replicate 2", "value": 59.7}, {"measurement": "Inhibition data, Kv1.6", "setting": "rKv1.6; replicate 3", "value": 81.8}, {"measurement": "Inhibition data, Kv1.6", "setting": "rKv1.6; replicate 4", "value": 80.2}, {"measurement": "inhibition at 1 µM", "setting": "hERG1 (Kv11.1)", "value": 0, "unit": "%"}]}
